Laboratory results from patent US20230399312A1, “SUBSTITUTED PYRIMIDINES AND METHODS OF USE” (THERAVANCE BIOPHARMA R&D IP, LLC, priority 2020, published 2023).

Legend:
[1] = biological target: T1, recombinant human ALK5 (TGF-βR1) protein (Homo sapiens, UniProt P36897); test: Biochemical ALK5 (TGF-βR1) assay to measure pKi (LANCE Ultra ULight kinase assay); details: apparent pKi, converted from pIC50 by Cheng-Prusoff
T1 construct: purchased Life Technologies PR9075A
T1 sequence (P36897 34-503): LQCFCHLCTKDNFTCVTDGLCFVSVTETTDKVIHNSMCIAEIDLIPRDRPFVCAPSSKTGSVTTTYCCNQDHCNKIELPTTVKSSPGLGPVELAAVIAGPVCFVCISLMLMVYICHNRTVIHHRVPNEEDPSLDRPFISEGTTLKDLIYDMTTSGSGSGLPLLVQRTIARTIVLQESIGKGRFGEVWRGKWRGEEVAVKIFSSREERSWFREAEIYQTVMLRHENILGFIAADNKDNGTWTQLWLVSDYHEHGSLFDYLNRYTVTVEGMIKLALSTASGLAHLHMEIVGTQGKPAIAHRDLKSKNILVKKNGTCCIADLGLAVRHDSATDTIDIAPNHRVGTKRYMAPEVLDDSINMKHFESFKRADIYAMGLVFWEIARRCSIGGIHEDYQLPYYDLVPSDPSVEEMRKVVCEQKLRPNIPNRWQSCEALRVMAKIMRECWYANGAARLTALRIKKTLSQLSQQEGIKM
Description: The assays were performed in a 384-well plate (24 columns×16 wells/rows). An Echo®550 Liquid Handler (Labcyte) was used to prepare various intermediate concentrations of compounds of the present disclosure in 100% DMSO. From the intermediate concentrations, a range of concentrations (from […] to 25 μM corresponding to volumes up to 105 nL) were prepared and ejected into a final assay plate to be used to create individual dose response curves for each of the subject compounds. To a separate column within the assay plate, 105 nL of DMSO in each well was used to establish a maximum assay signal. Additionally, 105 nL of 100 μM SD-208, a selective TGF-βR1 inhibitor (Catalog #S7624, Selleck Chemicals), was used in another column of wells to establish a minimal assay signal.
With a multidrop dispenser, 8 μL of enzyme mixture (1.25× final) was added to each well. […] The plate was then sealed with an adhesive seal and allowed to equilibrate for 60 minutes at room temperature.
Next, 2 μL of 125 μM ATP (5×final, 125 μM ATP prepared in assay buffer with 2 mM DTT) was added to the incubated mixtures, covered with a MicroClime® Environmental Lid (Product No. LLS-0310, Labcyte) and immediately transferred to 37° C. The reactions were allowed to proceed at 37° C. for 60 minutes before terminating with the addition of 10 μL of detection antibody (LANCE® (lanthanide chelate excite) Ultra Europium-anti-phospo-DNA Topoisomerase 2-alpha (Thr1342)) in detection mixture (12 mM EDTA, 4 nM detection antibody prepared in detection buffer (50 mM Tris-HCl, 150 mM NaCl, 0.5% BSA (Fraction V), pH 7.0)) at room temperature. The plate was then read on a Perkin Elmer EnVision Plate Reader using europium specific reader settings with excitation and emission wavelengths set to 320 or 340 nm and 665 nm, respectively.
For dose-response analyses, percent inhibition versus compound concentrations were plotted, and pIC50 values were determined from a 4-parameter robust fit model with GraphPad Prism V5 Software (GraphPad Software, Inc., La Jolla, CA). This model obtains pIC50 values by fitting the sigmoidal dose-response (variable slope) equation to the data. Results were expressed as pIC50 (negative logarithm of IC50) and subsequently converted to pKi (negative logarithm of dissociate constant, Ki) using the Cheng-Prusoff equation. The higher the value of pKi (lower value of Ki), the greater the inhibition of ALK5 activity.

[2] = system: TGF-β-stimulated SMAD3 phosphorylation in BEAS-2B cells; test: Cellular ALK5 potency assay, inhibition of TGF-β stimulated pSMAD3 formation in BEAS-2B cells; type: cell-based; details: Homo sapiens, pSMAD3, TGF-β 10 ng/mL, read-out: BEAS2B pIC50 (converted)
Description: The potency of compounds of the present disclosure for inhibition of TGF-β-stimulated SMAD3 phosphorylation was measured in BEAS-2B cells, a human lung epithelial cell line. TGF-β signals through activin receptor-like kinase 5 (ALK5) immediately prior to SMAD3 phosphorylation.
BEAS-2B cells were grown using 50% DMEM (Life Technologies) and 50% F-12 (Life Technologies) media, supplemented with 10% Fetal Bovine Serum (ATCC), 25 mM HEPES (Life Technologies), and 1×Pen-Strep (Life Technologies). Cells were cultured in a humidified incubator set at 37° C., 5% CO2, and trypsonized using 0.25% Trypsin with 0.5% polyvinylpyrrolidone (PVP).
For the assay, BEAS-2B cells were seeded at 7,500 cells/well (25 μL/well) in a 384-well plate and cultured overnight. Before dosing, growth media was aspirated and the wells were rinsed with HBSS Buffer (HBSS with Calcium and Magnesium, Life Technologies) supplemented with 25 mM HEPES (Life Technologies) and 1% Bovine Serum Albumin (Roche). Compounds were serially diluted in DMSO, then further diluted with supplemented HBSS Buffer (50 μL/well) to create a compound plate 3× of the final assay concentration, at 0.3% DMSO. The diluted compounds were then added to the cells (8 μL/well) and incubated at 37° C., 5% CO2 for 1 hour. After the compound incubation, TGF-β (R&D Systems) reconstituted in supplemented HBSS Buffer was added to the cells ([…], final concentration 10 ng/mL) and incubated for a further 30 minutes, after which the cells were immediately lysed with AlphaLISA lysis buffer (PerkinElmer). AlphaLISA Acceptor and Detector beads (PerkinElmer) were added 2 hours apart, then incubated overnight to be read the next day. The potency of the compound was determined through analysis of dose-dependent quantified changes in pSMAD3 signal from baseline (non-compound treated TGF-β stimulated cells). Data are expressed as pIC50 (negative decadic logarithm IC50) values.

Compound | Ki [1] [nM] | IC50 [2] [nM]
CC[C@H](C)OC(=O)C1CN(Cc2ccc(Nc3nccc(Nc4ccnc(-c5cccc(C)n5)n4)n3)cc2)CCN1 (mixture of isomers) [Compound 382, [rac-(1S)-1-methylpropyl] 4-[[4-[[4-[[2-(6-methyl-2-pyridyl)pyrimidin-4-yl]amino]pyrimidin-2-yl]amino]phenyl]methyl] piperazine-2-carboxylate] | 0.0398 to 0.316 | 25.1 to 158
Cc1cccc(-c2nccc(Nc3ccnc(Nc4ccc(CN5CCCC(C(=O)NC6CCNC6)C5)cc4)n3)n2)n1 (racemic) [Compound 456, 1-[[4-[[4-[[2-(6-methyl-2-pyridyl)pyrimidin-4-yl]amino]pyrimidin-2-yl]amino]phenyl]methyl]-N-[rac-(3R)-pyrrolidin-3-yl]piperidine-3-carboxamide] | 0.0398 to 0.316 | 25.1 to 158
Cc1cccc(-c2nccc(Nc3ccnc(Nc4ccc(N[C@H]5CCNC5)cc4)n3)n2)n1 [Compound 1, N4-[2-(6-methyl-2-pyridyl)pyrimidin-4-yl]-N2-[4-[[(3S)-pyrrolidin-3-yl]amino]phenyl]pyrimidine-2,4-diamine] | 0.0398 to 0.316 | 25.1 to 158
Cc1cccc(-c2nccc(Nc3ccnc(Nc4cc(F)c(C(=O)N5CCNCC5)c(Cl)c4)n3)n2)n1 [Compound 2, [2-chloro-6-fluoro-4-[[4-[[2-(6-methyl-2-pyridyl)pyrimidin-4-yl]amino]pyrimidin-2-yl]amino]phenyl]-piperazin-1-yl-methanone] | 0.398 to 3.16 | 25.1 to 158
CC(=O)N1CC(CNc2ccc(Nc3nccc(Nc4ccnc(-c5cccc(C)n5)n4)n3)cc2)C1 [Compound 3, 1-[3-[[4-[[4-[[2-(6-methyl-2-pyridyl)pyrimidin-4-yl]amino]pyrimidin-2-yl]amino]anilino]methyl]azetidin-1-yl]ethanone] | 0.398 to 3.16 | 25.1 to 158
Cc1cccc(-c2nccc(Nc3ccnc(Nc4ccc(N5CCC(N6CCN(C)CC6)CC5)cc4)n3)n2)n1 [Compound 4, N2-[4-[4-(4-methylpiperazin-1-yl)-1-piperidyl]phenyl]-N4-[2-(6-methyl-2-pyridyl)pyrimidin-4-yl]pyrimidine-2,4-diamine] | 0.0398 to 0.316 | 25.1 to 158
Cc1cccc(-c2nccc(Nc3ccnc(Nc4ccc(N)cc4)n3)n2)n1 [Compound 5, N2-(4-aminophenyl)-N4-[2-(6-methyl-2-pyridyl)pyrimidin-4-yl]pyrimidine-2,4-diamine] | 0.398 to 3.16 | ≤ 20
COc1ccc(Nc2nccc(Nc3ccnc(-c4cccc(C)n4)n3)n2)cc1NC(=O)C1CCNCC1 [Compound 6, N-[2-methoxy-5-[[4-[[2-(6-methyl-2-pyridyl)pyrimidin-4-yl]amino]pyrimidin-2-yl]amino]phenyl]piperidine-4-carboxamide] | 0.0398 to 0.316 | 25.1 to 158
Cc1cccc(-c2nccc(Nc3ccnc(Nc4ccc(N5CCSCC5)cc4)n3)n2)n1 [Compound 8, N4-[2-(6-methyl-2-pyridyl)pyrimidin-4-yl]-N2-(4-thiomorpholinophenyl) pyrimidine-2,4-diamine] | 0.0398 to 0.316 | 25.1 to 158
CC[C@@H](C)OC(=O)CC1CNCCN1c1ccc(Nc2nccc(Nc3ccnc(-c4cccc(C)n4)n3)n2)cc1 (stereo partly drawn) [Compound 9, [(1R)-1-methylpropyl] 2-[1-[4-[[4-[[2-(6-methyl-2-pyridyl)pyrimidin-4-yl]amino]pyrimidin-2-yl]amino]phenyl]piperazin-2-yl]acetate] | 0.0398 to 0.316 | 25.1 to 158
Cc1cccc(-c2nccc(Nc3ccnc(Nc4ccc(NC(=O)C5CCCNC5)cc4)n3)n2)n1 (stereo not drawn) [Compound 10, N-[4-[[4-[[2-(6-methyl-2-pyridyl)pyrimidin-4-yl]amino]pyrimidin-2-yl]amino]phenyl]piperidine-3-carboxamide] | 0.0398 to 0.316 | ≤ 20
Cc1cccc(-c2nccc(Nc3ccnc(Nc4ccc(N5CCCC(C(=O)OC6CCNC6)C5)cc4)n3)n2)n1 (stereo not drawn) [Compound 11, pyrrolidin-3-yl 1-[4-[[4-[[2-(6-methyl-2-pyridyl)pyrimidin-4-yl]amino]pyrimidin-2-yl]amino]phenyl]piperidine-3-carboxylate] | 0.0398 to 0.316 | 200 to 1260
CC(=O)N1CCN(S(=O)(=O)c2ccc(Nc3nccc(Nc4ccnc(-c5cccc(C)n5)n4)n3)cc2)CC1 [Compound 12, 1-[4-[4-[[4-[[2-(6-methyl-2-pyridyl)pyrimidin-4-yl]amino]pyrimidin-2-yl]amino]phenyl]sulfonylpiperazin-1-yl]ethanone] | 0.0398 to 0.316 | 25.1 to 158
CC[C@@H](C)OC(=O)Cc1cc(Nc2nccc(Nc3ccnc(-c4cccc(C)n4)n3)n2)ccc1N1CCNCC1 [Compound 13, (R)-sec-butyl 2-(5-((4-((2-(6-methylpyridin-2-yl)pyrimidin-4-yl)amino)pyrimidin-2-yl)amino)-2-(piperazin-1-yl)phenyl)acetate] | 0.0398 to 0.316 | 25.1 to 158
Cc1cccc(-c2nccc(Nc3ccnc(Nc4ccc(NC(=O)C5CCNCC5)cc4)n3)n2)n1 [Compound 14, N-(4-((4-((2-(6-methylpyridin-2-yl)pyrimidin-4-yl)amino)pyrimidin-2-yl)amino)phenyl)piperidine-4-carboxamide] | 0.0398 to 0.316 | ≤ 20
Cc1cccc(-c2nccc(Nc3ccnc(Nc4ccc(N5CC6(CNC6)C5)cc4)n3)n2)n1 [Compound 15, N2-[4-(2,6-diazaspiro[3.3]heptan-2-yl)phenyl]-N4-[2-(6-methyl-2-pyridyl)pyrimidin-4-yl]pyrimidine-2,4-diamine] | 0.0398 to 0.316 | 25.1 to 158
Cc1ccc(O)cc1-c1nccc(Nc2ccnc(Nc3ccc(N4CCC(N(C)C)CC4)cc3)n2)n1 [Compound 16, 3-[4-[[2-[4-[4-(dimethylamino)-1-piperidyl]anilino]pyrimidin-4-yl]amino]pyrimidin-2-yl]-4-methyl-phenol] | 0.398 to 3.16 | 25.1 to 158
Cc1cccc(-c2nccc(Nc3ccnc(Nc4ccc(CN5CCC(C(=O)OC6CNC6)CC5)cc4)n3)n2)n1 [Compound 17, azetidin-3-yl 1-[[4-[[4-[[2-(6-methyl-2-pyridyl)pyrimidin-4-yl]amino]pyrimidin-2-yl]amino]phenyl]methyl] piperidine-4-carboxylate] | 0.0398 to 0.316 | 25.1 to 158
